According to patent US20150004137A1, “NOVEL FORMS OF PLANT DEFENSINS” (Balmoral Australia Pty Ltd, priority 2011, published 2015):
Entries after “also recorded” stand apart in the source; their conditions may differ. Where no end group is shown, it is not given here.

How the values were obtained:
U937 cells [1] = experiment: PI uptake membrane permeabilisation assay (flow cytometry); type: cell-based, human; details: 30 minutes at 37° C.
Method: FIG. 5B is a graphical representation showing the effect of rNaD1, rNaD1(D2L4A), or rNaD1(D2L5) on the permeabilisation of U937 cells. Cells were incubated with 10 μM of each defensin for 30 minutes at 37° C. upon which 1 μg/ml PI propidium iodide (PI) was added. The number of cells that stained positively for PI was determined by flow cytometry.
Cells were incubated with 10 μM of each defensin for 30 minutes at 37° C. upon which 1 μg/ml PI propidium iodide (PI) was added. The number of cells that stained positively for PI was determined by flow cytometry.
Cells were incubated with 5 μM of each defensin for 30 minutes at 37° C. upon which […] PI propidium iodide (PI) was added. The number of cells that stained positively for PI was determined by flow cytometry.
Unless otherwise stated, cells are re-suspended at a cell concentration of 4×10^5 cells/mL in complete culture RPMI-1640 medium supplemented with 10% FBS, 100 μ/mL penicillin and 100 μg/mL streptomycin, and are added to either a V-bottom 96-well plate or microfuge tubes. Cells are kept at 37° C., unless otherwise stated, during protein addition (5 μL) at various concentrations or the set concentration of 10 μM. Typically, cells are mixed with the heterogeneous defensin of interest and are incubated at 37° C. for 30 min. In certain experiments, cells are also incubated at either 4° C. or 37° C. for 2-60 min prior to flow cytometry analysis. Cells are added to an equal volume of complete culture medium containing 2 μg/mL propidium iodide (PI, Annexin V-FITC Apoptosis Detection Kit, Invitrogen) and are analysed immediately by flow cytometry using a FACSCanto cell sorter (Becton Dickson, Fanklin Lakes, N.J.) and Cell Quest Pro Software (Becton Dickson). Typically, 5000-10000 events per sample are collected and the resultant data is analysed using FlowJo software (Tree Star, Ashland, Oreg.). Cells are gated appropriately based on forward scatter (FSC) and side scatter (SSC), with the viable cells is determined by their ability to exclude PI. […]

[2] = Lipid binding assay on Echelon membrane lipid strips; details: anti-NaD1 antibody detection, densitometry
From the text: FIG. 5C is an immunoblot depicting the lipid binding profile of rNaD1, rNaD1(D2L4A), or rNaD1(D2L5). Echelon™ membrane lipid strips were probed with the defensins and binding detected with a rabbit anti-NaD1 antibody followed by a horseradish peroxidase (HRP) conjugated donkey anti-rabbit IgG antibody.
Data is the mean of three replicate experiments±SEM.
Echelon™ membrane lipid strips were probed with the defensins and binding was detected with a rabbit anti-NaD1 antibody followed by a horseradish peroxidase (HRP) conjugated donkey anti-rabbit IgG antibody.
Membrane Lipid Strips™, PIP Strips™ and Sphingo Strips™ (Echelon Biosciences, Salt Lake City, Utah) were incubated with PBS/3% BSA for 1-2 h at RT to block non-specific binding. […] Membrane-bound protein was detected by probing the membrane strips with a rabbit anti-NaD1 polyclonal antibody (diluted 1:2000 with PBS/1% BSA) for 1 h at 4° C., followed by a HRP-conjugated donkey anti-rabbit IgG antibody (diluted 1:2000 with PBS/1% BSA) for 1 h at 4° C. After each antibody incubation, the membrane strips were washed extensively for 60 min at RT with PBS/0.1% Tween-20. Chemiluminescence was detected using the enhanced chemiluminescence (ECL) western blotting reagent (GE Healthcare BioSciences, NSW Australia) and exposed to Hyperfilm (GE Healthcare BioSciences, NSW, Australia) and developed using an Xomat (All-Pro-Imaging). […]

U937 cells [3] = experiment: BODIPY-NaD1 binding to viable and permeabilised U937 cells (flow cytometry, 7AAD); type: cell-based, human; details: 10 μM, 37° C., 30 min
From the text: The percentage of cells in each population (boxed) is indicated.

U937 and PC3 cells = experiment: Subcellular localisation of BODIPY-NaD1 by CLSM; type: cell-based, human; details: PI present, 12 minutes
Method: FIG. 2B is a series of micrographs examining the subcellular localisation of BODIPY-NaD1 in U937 and PC3 cells. U937 cells immobilised onto 10% poly-L-lysine coverslips or PC3 cells cultured as adherent monolayers on coverslips, were treated with […] BODIPY-NaD1 in the presence of 1 μg/ml PI for 12 minutes and cells imaged by CLSM. Scale bars represent 10 μm.
Live imaging was performed on a Zeiss LSM-510 confocal microscope using a 40× oil immersion objective in a 37° C./5% CO2 atmosphere. Adherent cells were cultured on coverslips prior to imaging while non-adherent cells were immobilized onto 10% poly-L-lysine-coated coverslips. All cell types were prepared for imaging in RPMI medium containing 0.1% BSA and […] PI. […] In certain experiments, cells were either, stained with PKH67 (Sigma-Aldrich) or transfected with plasmid construct for free GFP or GFP-PH(PLCδ) using Lipofectamine™ 2000 Reagent (Invitrogen) as per manufacturer's instructions prior to imaging. Transmission electron microscopy (TEM) imaging was performed according to a previously described procedure (Adda et al. 2009).

[4] = Cross-linking (BS3) study of lipid-mediated oligomerisation with PA; details: 0.5 mM PA, 30 min room temperature, SDS-PAGE, immunoblot
Method: (§1) Molecular weight markers are indicated.
(§2) Protein samples at 1 mg ml^−1 (2.5 μl) were incubated with 0.5 mM PIP2 or PA (2.5 μl) at room temperature for 30 min. […] Samples were reduced and denatured, and subjected to SDS-PAGE.

[5] = Cross-linking (BS3) study of lipid-mediated oligomerisation with PIP2; details: 0.5 mM PIP2, 30 min room temperature, SDS-PAGE, immunoblot
Method: as §1, §2

[6] = as described in PCT/AU2011/000760 and U.S. Ser. No. 13/166,960; cited from earlier work
tumour cells = details: as disclosed in PCT/AU2011/000760 and U.S. Ser. No. 13/166,960; cited from earlier work
[7] = target: the molecule itself; experiment: BS3 cross-linking in solution, SDS-PAGE and immunoblot; NaD2 was also efficiently multimerised by PA and not by PIP2
Method: FIG. 4B is an immunoblot depicting the lipid-mediated oligomerisation of the class II defensins NaD1 and TPP3, and the class I defensin NaD2. Each of the defensins at 250 ng/ml were incubated with 0.5 mM PIP2 or PA at room temperature for 30 minutes and samples then treated with the cross-linker bis[sulfosuccinimidyl] suberate (BS³) at 12.5 mM for a further 30 minutes, Samples were reduced and denatured, separated by SDS-PAGE, and examined by immunoblotting with an anti-NaD1 (NaD1 and TPP3) or anti-NaD2 (NaD2) antibody. Molecular weight markers are indicated.

With “rNaD1: NaD1 purified from P. pastoris (recombinant NaD1) (RECKTESNTFPGICITKPPCRKACISEKFTDGHCSKILRRCLCTKPC; recombinant, Pichia pastoris; UniProt Q8GTM0 26-72, looked up)” the “permeabilisation of U937 cells (cells stained positively for PI)” value (shortened to “permeabilisation of U937 cells”) (U937 cells [1]; 10 μM of each defensin) was “permeabilised U937 cells” and the “lipid binding profile (lipid bound most strongly / preferred)” value [2] was “bound most strongly to PIP2”.

In the case of “BODIPY-NaD1: BODIPY-labelled NaD1 (RECKTESNTFPGICITKPPCRKACISEKFTDGHCSKILRRCLCTKPC; cysteine pairing not given here; also: BODIPY label (position not given here); UniProt Q8GTM0 26-72, looked up)”, the “binding to U937 cells” value (U937 cells [3]; 7AAD, flow cytometry) is reported as “bound to both viable (7AAD negative) and permeabilised (7AAD positive) U937 cells”, the “membrane permeabilisation of U937 (7AAD)” value (U937 cells [3]; compared with unlabelled NaD1) is reported as “comparable level to unlabelled NaD1” and the “subcellular localisation on permeabilised tumor cells” value (U937 and PC3 cells) is reported as “accumulation of BODIPY-NaD1 at the membrane bleb(s), cytoplasm, nucleolus and possibly at certain cytoplasmic organelles”.

With “R40E: NaD1 mutant, loop 5 residue R40 replaced with glutamic acid (RECKTESNTFPGICITKPPCRKACISEKFTDGHCSKILRECLCTKPC; UniProt Q8GTM0 26-72, looked up, variant R40E)” the “permeabilisation of U937 cells” value (U937 cells [1]; 5 μM of each defensin) was “greatly reduced ability to permeabilise U937 cells”.

For “RTCESQSHRFKGPCARDSNCATVCLTEGFSGGDCRGFRRRCFCTRPC (listed as Nicotiana alata) [NaD2]”, the “multimerisation (oligomer formation) mediated by PA” value [4] is given as “forms oligomers with PA; also recorded: efficiently multimerised by PA”, the “multimerisation (oligomer formation) mediated by PIP2” value [5] is given as “not PIP2” and the “lipid binding preference / ligand” value [6] is given as “preferentially binds PA over PIP2; also recorded: does not bind PIP2”. For the same molecule, the tumour cell killing (tumour cells) was “does not kill tumour cells”.

For “K36E: NaD1 mutant, loop 5 residue K36 replaced with glutamic acid (RECKTESNTFPGICITKPPCRKACISEKFTDGHCSEILRRCLCTKPC; UniProt Q8GTM0 26-72, looked up, variant K36E)”, the “permeabilisation of U937 cells” value (U937 cells [1]; 5 μM of each defensin) was “greatly reduced ability to permeabilise U937 cells”.

RTCESQSHRFKGPCARDSNCATVCLTEGFSGGDCRGFRRRCFCTRPC (other) [NaD2 (Class I plant defensin)]: binds [7].
